# According to US8759014B2, “Methods of obtaining antigen-specific T cell populations” (The United States of America, as represented by the …, priority 2008, dated 2014):
# System: PBMC from HLA-A2+ metastatic melanoma patients
# Experiment: not given
# Conditions: not given
row,Molecule,number of patients with at least one microculture with significant peptide reactivity (SI >2) [patients]
1,CC[C@H](C)[C@H](N)C(=O)N[C@H](C(=O)N[C@@H](CC(=O)O)C(=O)N[C@@H](CCC(N)=O)C(=O)N[C@H](C(=O)N1CCC[C@H]1C(=O)N[C@@H](Cc1ccccc1)C(=O)N[C@@H](CO)C(=O)N[C@H](C(=O)O)C(C)C)C(C)C)[C@@H](C)O [gp100209-217],16

# Same assay, conditions: 17 HLA-A2+ melanoma patients (8 for gp100154-162); 1 μM peptide, 6 days, IL-2 90 IU/ml
row,Molecule,percent of patients with individual wells with peptide reactivity above background [%]
1,CC[C@H](C)[C@H](N)C(=O)N[C@H](C(=O)N[C@@H](CC(=O)O)C(=O)N[C@@H](CCC(N)=O)C(=O)N[C@H](C(=O)N1CCC[C@H]1C(=O)N[C@@H](Cc1ccccc1)C(=O)N[C@@H](CO)C(=O)N[C@H](C(=O)O)C(C)C)C(C)C)[C@@H](C)O [gp100209-217],94

# System: PBMC sub-populations
# Experiment: HT-qPCR IFN-γ screen of PBMC sub-populations contacted with candidate mesothelin peptides
# Assay type: cell-based, human
# Conditions: highest IFN-γ mRNA stimulation index of PBMC sub-populations contacted with the peptide and IL-2; SI <2 = not reactive
# Description: PBMCs obtained by leukapheresis from HLA-A2+ metastatic melanoma patients are used to establish 96 independent subpopulations cultured in complete medium (CM) consisting of RPMI 1640 supplemented with 10% heat-inactivated fetal bovine serum, 2 mM L-glutamine (Invitrogen, Carlsbad, Calif.), 50 units/mL penicillin (Invitrogen), 50 μg/mL streptomycin (Invitrogen), 50 μg/mL gentamicin (Invitrogen), 10 mM Hepes (Invitrogen), and 250 ng/mL Amphotericin B (Invitrogen), along with 10% heat-inactivated human AB serum (Gemini Bio-Products, Woodland, Calif.). […] The SI reactivities for the 96 wells are stratified by their magnitude and the most reactive subpopulations are selected for limiting dilution cloning.
# Mesothelin peptides of the following amino acid sequence are synthesized as essentially described in Example 1: […] (SEQ ID NO: 12), […] (SEQ ID NO: 11), […] (SEQ ID NO: 13), […] (SEQ ID NO: 14), […] (SEQ ID NO: 15), […] (SEQ ID NO: 16), […] (SEQ ID NO: 17), […] (SEQ ID NO: 18), […] (SEQ ID NO: 19), and […] (SEQ ID NO: 20). The peptides are used to contact PBMC sub-populations along with IL-2 in accordance with the procedures described in Example 4. HT-qPCR is performed on a sample of each sub-population to determine the expression of IFN-γ by the contacted PBMC sub-populations.
row,Molecule,Highest SI (Day 14)
1,VLPLTVAEV,<2
2,VLLPRLVSC,<2
3,FLLFSLGWV,29
4,SLLFLLFSL,119
5,LLGFPCAEV,<2
6,LLATQMDRV,<2
7,RLSEPPEDL,<2
8,LPLDLLLFL,<2
9,LIFYKKWEL,<2
10,NMNGSEYFV,*<2
